In the NIST ThermoML archive (doi:10.1021/je0302001):
Numbers after ± are expanded uncertainties.

Assay: mn = molality of the nth substance listed, in mol/kg
Settings: for speed of sound / mass density / viscosity: 101.3 kPa, Liquid; for surface tension liquid-gas: Ring tensiometer; for viscosity: Capillary tube (Ostwald / Ubbelohde) method

O=[N+]([O-])[O-].O=[N+]([O-])[O-].[Zn+2] [nitric acid, zinc salt] + O
Settings | mass density [kg/m3] | speed of sound [m/s] | surface tension liquid-gas [mN/m] | viscosity [mPa·s]
298.15 K, m1 = 4.817 | – | 1748.7 ± 4.6 | – | –
298.15 K, m1 = 5.224 | – | 1755.5 ± 4.6 | – | –
298.15 K, m1 = 5.797 | – | 1769.4 ± 4.7 | – | –
298.15 K, m1 = 6.34 | – | 1777.8 ± 4.7 | – | –
298.15 K, m1 = 6.89 | – | 1783 ± 4.7 | – | –
298.45 K, m1 = 0.0875 | 1009.7 ± 0.7 | – | – | –
298.45 K, m1 = 5.224 | 1589.9 ± 1.4 | – | – | –
298.65 K, m1 = 0.6405 | 1090.9 ± 0.7 | – | – | –
298.75 K, m1 = 1.113 | 1156.5 ± 0.8 | – | – | –
298.75 K, m1 = 2.91 | 1373.5 ± 1.1 | – | – | –
298.85 K, m1 = 2.145 | 1286.9 ± 1 | – | – | –
298.95 K, m1 = 1.258 | 1175.8 ± 0.8 | – | – | –
299.05 K, m1 = 7.349 | 1738.2 ± 1.6 | – | – | –
299.2 K, m1 = 1.906 | 1258 ± 0.9 | – | – | –
299.6 K, m1 = 5.8 | 1633.1 ± 1.4 | – | – | –
299.7 K, m1 = 0.2466 | 1033.3 ± 0.7 | – | – | –
299.7 K, m1 = 1.551 | 1213.3 ± 0.9 | – | – | –
299.7 K, m1 = 6.89 | 1708.8 ± 1.6 | – | – | –
299.75 K, m1 = 2.29 | 1303.4 ± 1 | – | – | –
300.05 K, m1 = 2.292 | 1303.4 ± 1.1 | – | – | –
300.05 K, m1 = 3.472 | 1431.1 ± 1.2 | – | – | –
300.05 K, m1 = 6.34 | 1671.6 ± 1.5 | – | – | –
300.2 K, m1 = 2.344 | 1309.4 ± 1 | – | – | –
300.35 K, m1 = 5.224 | 1588.3 ± 1.4 | – | – | –
300.55 K, m1 = 0.3388 | 1046.5 ± 0.7 | – | – | –
300.8 K, m1 = 0.6111 | 1085.9 ± 0.7 | – | – | –
300.8 K, m1 = 2.91 | 1372.1 ± 1.1 | – | – | –
301 K, m1 = 2.145 | 1285.5 ± 1 | – | – | –
301.25 K, m1 = 1.113 | 1155.2 ± 0.8 | – | – | –
301.35 K, m1 = 5.8 | 1631.5 ± 1.4 | – | – | –
301.35 K, m1 = 6.89 | 1707.1 ± 1.6 | – | – | –
301.4 K, m1 = 0.1329 | 1015.6 ± 0.7 | – | – | –
301.4 K, m1 = 1.906 | 1256.6 ± 0.9 | – | – | –
301.5 K, m1 = 1.258 | 1174.5 ± 0.8 | – | – | –
301.55 K, m1 = 0.6405 | 1089.7 ± 0.8 | – | – | –
301.85 K, m1 = 2.29 | 1302 ± 1 | – | – | –
301.85 K, m1 = 4.075 | 1488 ± 1.2 | – | – | –
301.85 K, m1 = 6.34 | 1669.9 ± 1.5 | – | – | –
302 K, m1 = 1.551 | 1212 ± 0.9 | – | – | –
302.1 K, m1 = 3.472 | 1429.5 ± 1.2 | – | – | –
302.1 K, m1 = 4.817 | 1553.4 ± 1.3 | – | – | –
302.2 K, m1 = 2.292 | 1302 ± 1 | – | – | –
302.25 K, m1 = 2.344 | 1308.1 ± 1 | – | – | –
302.25 K, m1 = 5.224 | 1586.5 ± 1.4 | – | – | –
302.35 K, m1 = 0.0875 | 1008.6 ± 0.7 | – | – | –
302.5 K, m1 = 7.349 | 1734.5 ± 1.6 | – | – | –
302.9 K, m1 = 2.91 | 1370.6 ± 1.1 | – | – | –
303.15 K, m1 = 0.0875 | – | 1514.4 ± 4 | – | –
303.15 K, m1 = 0.1329 | – | 1513 ± 4 | – | 0.841 ± 0.01
303.15 K, m1 = 0.2263 | – | – | 71.91 ± 0.92 | –
303.15 K, m1 = 0.2466 | 1032.1 ± 0.7 | 1518.2 ± 4 | – | 0.87 ± 0.01
303.15 K, m1 = 0.334 | – | – | 71.94 ± 0.92 | –
303.15 K, m1 = 0.3388 | – | 1520.9 ± 4 | – | 0.896 ± 0.01
303.15 K, m1 = 0.6111 | – | 1535.9 ± 4.1 | – | 0.976 ± 0.011
303.15 K, m1 = 0.6198 | – | – | 72.68 ± 0.93 | –
303.15 K, m1 = 0.6405 | – | 1536.9 ± 4.1 | – | 0.984 ± 0.011
303.15 K, m1 = 0.8228 | – | – | 73.52 ± 0.94 | –
303.15 K, m1 = 1.113 | – | 1561.1 ± 4.1 | – | 1.15 ± 0.013
303.15 K, m1 = 1.258 | – | 1571.6 ± 4.2 | – | 1.221 ± 0.014
303.15 K, m1 = 1.259 | – | – | 74.63 ± 0.96 | –
303.15 K, m1 = 1.549 | – | – | 75.19 ± 0.97 | –
303.15 K, m1 = 1.551 | – | 1589.3 ± 4.2 | – | 1.34 ± 0.016
303.15 K, m1 = 1.818 | – | – | 75.65 ± 0.98 | –
303.15 K, m1 = 1.906 | – | 1610.2 ± 4.3 | – | 1.549 ± 0.018
303.15 K, m1 = 2.145 | 1284.1 ± 1 | – | – | 1.711 ± 0.02
303.15 K, m1 = 2.222 | – | – | 76.95 ± 1 | –
303.15 K, m1 = 2.29 | – | – | – | 1.797 ± 0.021
303.15 K, m1 = 2.344 | – | – | – | 1.819 ± 0.021
303.15 K, m1 = 2.526 | – | – | 77.93 ± 1 | –
303.15 K, m1 = 2.721 | – | – | 78.39 ± 1 | –
303.15 K, m1 = 2.91 | – | – | – | 2.259 ± 0.027
303.15 K, m1 = 3.426 | – | – | 80.38 ± 1.1 | –
303.15 K, m1 = 3.472 | – | – | – | 2.839 ± 0.034
303.15 K, m1 = 4.011 | – | – | 81.68 ± 1.1 | –
303.15 K, m1 = 4.075 | – | – | – | 3.581 ± 0.043
303.15 K, m1 = 4.231 | – | – | 82.16 ± 1.1 | –
303.15 K, m1 = 4.817 | – | – | – | 4.795 ± 0.059
303.15 K, m1 = 5.133 | – | – | 84.17 ± 1.1 | –
303.15 K, m1 = 5.224 | – | – | – | 5.544 ± 0.068
303.15 K, m1 = 5.797 | – | – | – | 7.1 ± 0.088
303.15 K, m1 = 6.245 | – | – | 85.54 ± 1.2 | –
303.15 K, m1 = 6.34 | – | – | – | 8.647 ± 0.11
303.15 K, m1 = 6.89 | – | – | – | 10.85 ± 0.14
303.15 K, m1 = 7.349 | – | – | – | 12.93 ± 0.16
